Measurements: patent US20220202964A1, “HEPARANASE COMPOUNDS AND METHODS OF USE” (University of Florida Research Foundation, Incorporated, priority 2019, published 2022)
Like-named read-outs stand apart in the source and are kept apart here.

Experiments:
[1] = stated for comparison; cited from earlier work
[2] = pH profile of fluorescence / pKa; format: physicochemical; details: hydrolytic product of HADP, fluorescence vs pH
Description: So, pH profiles of the fluorophore DiFMU and Compound 1 (HADP) were evaluated. […] In contrast, the pKa of 4-methylumbelliferone is ca. 7.8. […] Moreover, the introduction of the fluorine substituents increased the quantum yield and improved the photostability, enabling highly sensitive detection for heparanase.

heparanase [3] = biological target: T1, heparanase (Homo sapiens, UniProt Q9Y251); details: substrate for heparanase, comparison value; cited from earlier work
T1 sequence (Q9Y251 36-543): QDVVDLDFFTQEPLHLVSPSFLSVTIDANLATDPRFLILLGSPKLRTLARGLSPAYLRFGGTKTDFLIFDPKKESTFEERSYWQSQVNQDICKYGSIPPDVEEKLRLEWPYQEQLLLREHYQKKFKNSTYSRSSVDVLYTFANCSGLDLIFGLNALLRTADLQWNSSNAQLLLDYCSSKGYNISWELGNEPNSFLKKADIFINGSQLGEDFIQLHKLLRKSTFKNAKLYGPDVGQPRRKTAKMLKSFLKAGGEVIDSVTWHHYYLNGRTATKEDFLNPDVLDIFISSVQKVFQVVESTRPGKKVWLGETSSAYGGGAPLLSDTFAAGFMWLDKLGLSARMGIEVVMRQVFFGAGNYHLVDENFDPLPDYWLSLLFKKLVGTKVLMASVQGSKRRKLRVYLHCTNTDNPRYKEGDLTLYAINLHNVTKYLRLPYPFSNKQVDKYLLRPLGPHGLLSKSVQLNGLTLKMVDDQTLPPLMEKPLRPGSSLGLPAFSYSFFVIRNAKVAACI

heparanase [4] = biological target: T1, heparanase; experiment: Activation of compounds by recombinant heparanase (fluorescence response); format: biochemical; details: 5 μM compound, 1 μg heparanase, 40 mM NaOAc buffer (pH 5.0), 37° C., λex/em=365 nm/455 nm
Description: To a solution of 20 μL, of 50 μM compound 1 (HADP) and 160 μL 40 mM NaOAc (pH=5.0) was added 20 μL, 0.1 μg/μL heparanase to obtain 5 μM 1 (HADP) with 2 μg heparanase solution. After incubation at 37° C. for 2 h, the reaction solution was transferred to quartz cuvettes to measure absorbance or fluorescence. Absorbance spectrum scan range from 250 nm to 500 nm (1 nm increment). fluorescence spectrum setting: λex=365 nm, Slit Width 2.5 nm. Emission was record from 400 nm to 600 nm, Slit Width 5 nm. Absorption spectra were recorded on Shimadzu UV-2700 UV-VIS Spectrophotometer. Fluorescence spectra were recorded on Fluorolog TAU-3 Spectrofluorometer with a xenon lamp (Jobin Yvon-Spex, Instruments S. A., Inc.)
Fluorescence micro cells was charged with 20 μL, of 50 μM compound 1 (HADP) and 160 μL 40 mM NaOAc (pH=5.0). Then 20 μL, 0.05 μg/μL heparanase was added to the above solution. Fluorescence spectra were recorded from 0 min to 3 h. fluorescence spectrum setting: λex=365 nm, Slit Width 2.5 nm. Emission was record from 400 nm to 600 nm, Slit Width 5 nm.
To a solution of 20 μL, of 50 μM each compound and 160 μL, 40 mM NaOAc (pH=5.0) was added 20 μL, 0.05 μg/μL heparanase to obtain 5 μM each compound with 1 μg heparanase solution in 96-well microplate. Each compound was performed in triplicate. Then the microplate was sealed with sealing film and incubated at 37° C. Fluorescence intensity was recorded on Spectramax M5 Multimode plate reader (Molecular Devices, USA) at each timepoint. λex/em=365 nm/455 nm.
5 μM compound 1 (HADP) was incubated with various biological species at the indicated amount/concentration in 96-well microplate. Cysteine (5 mM), Glutathione (5 mM), H2O2 (100 μM), Esterase, Chondroitinase ABC, Hyaluronidase, Lysozyme, β-Glucuronidase, β-Glucosidase (5 μg each) and heparanase (2 μg). For Chondroitinase ABC and Hyaluronidase, 50 μg was also tested. Each sample was performed in triplicates. Then the microplate was sealed with sealing film and incubated at 37° C. for 4 hours. Fluorescence intensity was recorded on Spectramax M5 Multimode plate reader (Molecular Devices, USA). λex/em=365 nm/455 nm.

heparanase [5] = biological target: T1, heparanase; experiment: HPLC analysis of compounds 1-4 with heparanase; format: biochemical; details: 5 μM, heparanase 1 μg, 4 hours, 37° C., NaOAc pH 5.0
Description: Heparanase (1 μg, 20 μL) was added to the compounds 1-4 solution (180 μL, 5 μM) in 40 mM NaOAc buffer (pH 5.0) and the mixture was incubated for 4 hours at 37° C. The resulting mixtures were injected into HPLC for analysis. HPLC analysis was performed under the following conditions—mobile phase A: water with 0.1% TFA; B: acetonitrile with 0.1% TFA; 0-20 min: gradient elution, 25-95% B. The trace was monitored by DAD detector at 315 nm.

Compound	fluorescence response towards heparanase (heparanase [4])	cleavage by heparanase (HPLC trace) (heparanase [5])	other results
Cc1cc(=O)oc2cc(O)ccc12 [4-methylumbelliferone]	–	–	pKa [1]: ca. 7.8
Cc1cc(=O)oc2c(F)c(O)c(F)cc12 [DiFMU, 6,8-difluoro-7-hydroxy-4-methylcoumarin, reference compound]	–	–	pKa [2]: ~4.7
CO[C@H]1O[C@H](COS(=O)(=O)O)[C@@H](O[C@@H]2O[C@@H](C(=O)O)[C@@H](O[C@H]3O[C@H](COS(=O)(=O)O)[C@@H](O[C@@H]4O[C@H](C(=O)O)[C@@H](O[C@H]5O[C@H](COS(=O)(=O)O)[C@@H](O)[C@H](O)[C@H]5NS(=O)(=O)O)[C@H](O)[C@H]4O)[C@H](OS(=O)(=O)O)[C@H]3NS(=O)(=O)O)[C@H](O)[C@H]2OS(=O)(=O)O)[C@H](O)[C@H]1NS(=O)(=O)O [fondaparinux]	–	–	Km (heparanase [3]): 46 µM
(2S,3S,4R,5R,6S)-3-(((2R,3R,4R,5S,6R)-4,5-dihydroxy-6-((sulfooxy)methyl)-3-(((E)-trioxidaneyl-14-sulfaneylidene)amino)tetrahydro-2H-pyran-2-yfloxy)-4,5-dihydroxy-6-((4-methyl-2-oxo-2H-chromen-7-yl)oxy)tetrahydro-2H-pyran-2-carboxylic acid [Compound 4]	could not be activated by heparanase	could not be cleaved by heparanase	–
(2S,3S,4R,5R,6S)-6-((8-(difluoromethyl)-4-methyl-2-oxo-2H-chromen-7-yl)oxy)-3-(((2R,3R,4R,5S,6R)-3-((hydrosulfonyloxy)amino)-4,5-dihydroxy-6-(hydroxymethyl)tetrahydro-2H-pyran-2-yl)oxy)-4,5-dihydroxytetrahydro-2H-pyran-2-carboxylic acid [Compound 3]	very slight fluorescence enhancement	could not be cleaved by heparanase	–
